Assay results: patent US20250230155A1 (Vanderbilt University, priority 2021, published 2025)
Read-outs that look alike come from different tables or passages of the source.

Molecular target: T1, human mAChR M4 (Homo sapiens, UniProt P08173)
T1 construct: expressed in transfected cells
T1 sequence (P08173 1-479): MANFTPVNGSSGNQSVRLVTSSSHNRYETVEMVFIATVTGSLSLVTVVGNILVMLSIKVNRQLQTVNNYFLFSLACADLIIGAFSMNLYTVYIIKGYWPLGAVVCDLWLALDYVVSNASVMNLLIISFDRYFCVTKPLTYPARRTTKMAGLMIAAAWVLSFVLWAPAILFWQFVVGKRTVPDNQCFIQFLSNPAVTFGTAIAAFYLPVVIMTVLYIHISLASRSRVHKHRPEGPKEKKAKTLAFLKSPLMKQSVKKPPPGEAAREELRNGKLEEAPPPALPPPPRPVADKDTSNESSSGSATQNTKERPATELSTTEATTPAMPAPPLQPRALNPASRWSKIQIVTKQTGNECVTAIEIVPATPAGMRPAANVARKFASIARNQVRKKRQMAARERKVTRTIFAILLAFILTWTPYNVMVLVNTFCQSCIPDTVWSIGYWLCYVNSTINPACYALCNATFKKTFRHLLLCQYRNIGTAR
Test: mAChR M4 cell-based functional assay (calcium mobilization, CHO-K1 hM4-Gqi5 cells)
Details: for Emax at 30 µM: CHO-K1, % ACh maximum at 30 μM, human M4; for EC50: increase in the EC20 acetylcholine response, CHO-K1 hM4-Gqi5 cells; for Emax: CHO-K1
How it was run: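 CHO-K1 cells stably expressing human M4 with chimeric Gqi5, loaded with Fluo-4 AM; compounds given as 11-point 1:3 curves and calcium flux read on FDSS at 1 Hz. Acetylcholine EC20 added at 144 s, EC80 at 230 s; agonist, PAM (EC20 potentiation) and antagonist (EC80 inhibition) EC50/Emax from four-parameter fits.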

[1] = positive allosteric modulator activity, read-out: Human M4 EC50

Emax at 30 µM | EC50 [1] | SMILES | Emax | EC50 (Human M4 EC50, positive allosteric modulator activity)
80% | 611 nM | Cc1nc(Cl)c(C)c(N2CCc3ncc(-c4cnn(C5CCC5)c4)cc3C2)n1 [compound 195, 6-(6-chloro-2,5-dimethyl-pyrimidin-4-yl)-3-(1-cyclobutylpyrazol-4-yl)-7,8-dihydro-5H-1,6-naphthyridine] |  | 
70% | 1170 nM | COc1nc(C)nc(N2CCc3ncc(-c4cn(C)nc4C)cc3C2)c1C [compound 196, 3-(1,3-dimethylpyrazol-4-yl)-6-(6-methoxy-2,5-dimethyl-pyrimidin-4-yl)-7,8-dihydro-5H-1,6-naphthyridine] |  | 
92% | 63 nM | Cc1nc(Cl)c(C)c(N2CCc3ncc(-c4c(C)noc4C)cc3C2)n1 [compound 197, 4-[6-(6-chloro-2,5-dimethyl-pyrimidin-4-yl)-7,8-dihydro-5H-1,6-naphthyridin-3-yl]-3,5-dimethyl-isoxazole] |  | 
92% | 137 nM | Cc1nc(Cl)c(C)c(N2CCc3ncc(-c4sc(C)nc4C)cc3C2)n1 [compound 198, 5-[6-(6-chloro-2,5-dimethyl-pyrimidin-4-yl)-7,8-dihydro-5H-1,6-naphthyridin-3-yl]-2,4-dimethyl-thiazole] |  | 
81% | 140 nM | Cc1nc(Cl)c(C)c(N2CCc3ncc(-c4cnc(C)s4)cc3C2)n1 [compound 199, 5-[6-(6-chloro-2,5-dimethyl-pyrimidin-4-yl)-7,8-dihydro-5H-1,6-naphthyridin-3-yl]-2-methyl-thiazole] |  | 
96% | 128 nM | Cc1nc(Cl)c(C)c(N2CCc3ncc(C(F)(F)F)cc3C2)n1 [compound 200, 6-(6-chloro-2,5-dimethyl-pyrimidin-4-yl)-3-(trifluoromethyl)-7,8-dihydro-5H-1,6-naphthyridine] |  | 
77% | 176 nM | Cc1nc(C)c(C)c(N2CCc3ncc(-c4cn(C)nc4C)cc3C2)n1 [compound 201, 3-(1,3-dimethylpyrazol-4-yl)-6-(2,5,6-trimethylpyrimidin-4-yl)-7,8-dihydro-5H-1,6-naphthyridine] |  | 
78% | 921 nM | Cc1nc(Cl)c(C)c(N2CCc3ncc(Oc4ccc(F)cc4)cc3C2)n1 [compound 202, 6-(6-chloro-2,5-dimethyl-pyrimidin-4-yl)-3-(4-fluorophenoxy)-7,8-dihydro-5H-1,6-naphthyridine] |  | 
86% | 647 nM | Cc1nc(Cl)c(C)c(N2CCc3ncc(Oc4cccc(F)c4)cc3C2)n1 [compound 203, 6-(6-chloro-2,5-dimethyl-pyrimidin-4-yl)-3-(3-fluorophenoxy)-7,8-dihydro-5H-1,6-naphthyridine] |  | 
90% | 328 nM | Cc1nc(Cl)c(C)c(N2CCc3ncc(Oc4ccccc4F)cc3C2)n1 [compound 204, 6-(6-chloro-2,5-dimethyl-pyrimidin-4-yl)-3-(2-fluorophenoxy)-7,8-dihydro-5H-1,6-naphthyridine] |  | 
67% | 1340 nM | COc1ccc(Oc2cnc3c(c2)CN(c2nc(C)nc(Cl)c2C)CC3)cn1 [compound 205, 6-(6-chloro-2,5-dimethyl-pyrimidin-4-yl)-3-[(6-methoxy-3-pyridyl)oxy]-7,8-dihydro-5H-1,6-naphthyridine] |  | 
77% | 534 nM | Cc1nc(Cl)c(C)c(N2CCc3ncc(Oc4ccc5c(c4)OCCO5)cc3C2)n1 [compound 206, 6-(6-chloro-2,5-dimethyl-pyrimidin-4-yl)-3-(2,3-dihydro-1,4-benzodioxin-6-yloxy)-7,8-dihydro-5H-1,6-naphthyridine] |  | 
86% | 370 nM | Cc1nc(Cl)c(C)c(N2CCc3ncc(Oc4cccnc4)cc3C2)n1 [compound 207, 6-(6-chloro-2,5-dimethyl-pyrimidin-4-yl)-3-(3-pyridyloxy)-7,8-dihydro-5H-1,6-naphthyridine] |  | 
76% | 304 nM | Cc1nc(Cl)c(C)c(N2CCc3ncc(Oc4ccc5c(cnn5C)c4)cc3C2)n1 [compound 208, 6-(6-chloro-2,5-dimethyl-pyrimidin-4-yl)-3-(1-methylindazol-5-yl)oxy-7,8-dihydro-5H-1,6-naphthyridine] |  | 
98% | 65 nM | Cc1nc(Cl)c(C)c(N2CCc3ncc(Nc4ccnn4C)cc3C2)n1 [compound 212, 6-(6-chloro-2,5-dimethylpyrimidin-4-yl)-N-(1-methyl-1H-pyrazol-5-yl)-5,6,7,8-tetrahydro-1,6-naphthyridin-3-amine] |  | 
103% | 709 nM | COCc1nc(Cl)c(C)c(N2CCc3ncc(C(F)(F)F)cc3C2)n1 [compound 214, 6-(6-chloro-2-(methoxymethyl)-5-methylpyrimidin-4-yl)-3-(trifluoromethyl)-5,6,7,8-tetrahydro-1,6-naphthyridine] |  | 
94% | 864 nM | COCc1nc(Cl)c(C)c(N2CCc3ncc(-c4cn(C)nc4C)cc3C2)n1 [compound 216, 6-(6-chloro-2-(methoxymethyl)-5-methylpyrimidin-4-yl)-3-(1,3-dimethyl-1H-pyrazol-4-yl)-5,6,7,8-tetrahydro-1,6-naphthyridine] |  | 
96% | 539 nM | COCc1nc(Cl)c(C)c(N2CCc3ncc(-c4cncs4)cc3C2)n1 [compound 217, 5-(6-(6-chloro-2-(methoxymethyl)-5-methylpyrimidin-4-yl)-5,6,7,8-tetrahydro-1,6-naphthyridin-3-yl)thiazole] |  | 
83% | 759 nM | Cc1nc(Cl)c(C)c(N2CCc3nc(C(F)(F)F)ccc3C2)n1 [compound 218, 6-(6-chloro-2,5-dimethylpyrimidin-4-yl)-2-(trifluoromethyl)-5,6,7,8-tetrahydro-1,6-naphthyridine] |  | 
82% | 518 nM | Cc1nc(Cl)c(C)c(N2CCc3ncc(-c4ccc(N(C)C)nc4)cc3C2)n1 [compound 220, 5-(6-(6-chloro-2,5-dimethylpyrimidin-4-yl)-5,6,7,8-tetrahydro-1,6-naphthyridin-3-yl)-N,N-dimethylpyridin-2-amine] |  | 
25% | ≥ 10000 nM | Cc1nc(C(=O)N2CCOCC2)c(C)c(N2CCc3ncc(C(F)(F)F)cc3C2)n1 [compound 221, (2,5-dimethyl-6-(3-(trifluoromethyl)-7,8-dihydro-1,6-naphthyridin-6(5H)-yl)pyrimidin-4-yl)(morpholino)methanone] |  | 
91% | 333 nM | Cc1nc(Cl)c(C)c(N2Cc3cc([N+](=O)[O-])cnc3C(C)C2)n1 (stereo not drawn) [compound 222, 6-(6-chloro-2,5-dimethylpyrimidin-4-yl)-8-methyl-3-nitro-5,6,7,8-tetrahydro-1,6-naphthyridine] |  | 
56% | 3290 nM | Cc1nc(N2CCCC2)c(C)c(N2CCc3ncc(-c4ccc(F)nc4)cc3C2)n1 [compound 223, 6-(2,5-dimethyl-6-(pyrrolidin-1-yl)pyrimidin-4-yl)-3-(6-fluoropyridin-3-yl)-5,6,7,8-tetrahydro-1,6-naphthyridine] |  | 
82% | 214 nM | Cc1nc(Cl)c(C)c(N2CCc3ncc(-c4ccc(F)nc4)cc3C2)n1 [compound 224, 6-(6-chloro-2,5-dimethylpyrimidin-4-yl)-3-(6-fluoropyridin-3-yl)-5,6,7,8-tetrahydro-1,6-naphthyridine] |  | 
 |  | Cc1nc(Cl)c(C)c(N2CCc3ncc(C4CC4)cc3C2)n1 [compound 225, 6-(6-chloro-2,5-dimethylpyrimidin-4-yl)-3-cyclopropyl-5,6,7,8-tetrahydro-1,6-naphthyridine] | 87% | 57 nM

SMILES | Emax at 30 µM | EC50 [1] | Emax | EC50 (Human M4 EC50, positive allosteric modulator activity)
Cc1cnc2c(c1)CN(c1nc(C)nc(Cl)c1C)CC2 [compound 209, 6-(6-chloro-2,5-dimethyl-pyrimidin-4-yl)-3-methyl-7,8-dihydro-5H-1,6-naphthyridine] |  | 170 nM | 95% | 
COCc1nc(Cl)c(C)c(N2CCc3ncc(Br)cc3C2)n1 [compound 211, 3-bromo-6-(6-chloro-2-(methoxymethyl)-5-methylpyrimidin-4-yl)-5,6,7,8-tetrahydro-1,6-naphthyridine] |  | 123 nM | 99% | 
Cc1nc(Cl)c(C)c(N2CCc3ncc(N)cc3C2)n1 [compound 213, 6-(6-chloro-2,5-dimethylpyrimidin-4-yl)-5,6,7,8-tetrahydro-1,6-naphthyridin-3-amine] |  | 1890 nM | 94% | 
Cc1nc(Cl)c(C)c(N2CCc3ncc(C(F)F)cc3C2)n1 [compound 215, 6-(6-chloro-2,5-dimethylpyrimidin-4-yl)-3-(difluoromethyl)-5,6,7,8-tetrahydro-1,6-naphthyridine] |  | 137 nM | 93% | 
Cc1nc(Cl)c(C)c(N2Cc3cc(N)cnc3C(C)(C)C2)n1 [compound 219, 6-(6-chloro-2,5-dimethylpyrimidin-4-yl)-8,8-dimethyl-5,6,7,8-tetrahydro-1,6-naphthyridin-3-amine] |  | ≥ 10000 nM | 37% | 
